Consider two molecules from patent publication US20150342968A1, “STABLE PHARMACEUTICAL COMPOSITION FOR TREATING OSTEOPOROSIS” (LANDSTEINER SCIENTIFIC S.A. DE C.V., priority 2012, published 2015).

By Tmax is commonly meant the time at which the peak concentration occurs.

“And” between values parts separate entries of the source, which are not always exact repeats. Identical values can stand only once.

Data set [1] is described as follows: Evaluation of the stability of vitamin D3 in tablets of composition in Table 1. The class given is physicochemical. On the procedure:
(§1) Two stability tests of vitamin D3 and risedronate sodium were performed at different conditions by subjecting the tablets that were prepared according to the composition in Table 1. The conditions were as follows:
Evaluation Of The Stability Of Vitamin D3
(§2) Two batches of the composition were subjected to different conditions to evaluate the stability of vitamin D3 and risedronate sodium. The conditions were the following: 30° C./65% RH, 40° C./75% RH and Cycled 40° C./75% RH-Cooling (2°-8° C.). The samples were submitted for 4 weeks and the following results were obtained.

The conditions of data set [2]: cited from earlier work.
Data set [3] is described as follows: Dissolution buffer stage pH 6.8 of tablets of composition in Table 1. The class given is physicochemical. The protocol:
as §1
It is evident that the risedronate sodium dissolves quickly in a medium with pH 6.8, obtaining more than 100% in the first 10 minutes.

Data set [4] can be described thus: Evaluation of the stability of risedronate sodium in tablets of composition in Table 1. The class given is physicochemical. The protocol:
as §1, §2
Evaluation of the Stability of Risedronate Sodium

Data set [5] can be described thus: Dissolution acid stage (gastro-resistance) of tablets of composition in Table 1. Type of data set: physicochemical. The protocol:
as §1
The product complies with the gastro-resistant stage, because it has an enteric coating to protect the mucous membranes while it passes through the gastrointestinal system.

The conditions of data set [6]: cited from earlier work. The source holds these as a separate data set.

As for `C=C1CC[C@H](O)C/C1=C/C=C1\CCC[C@]2(C)[C@@H]([C@H](C)CCCC(C)C)CC[C@@H]12` [Vitamin D3, cholecalciferol], the “Vitamin D3 rating (stability)” value in data set [1] (Test 1, week 0, 30° C./65% RH) was 100.00%; in data set [1] (Test 1, week 0, 40° C./75% RH) it was 100.00%; in data set [1] (Test 1, week 0, Cycled 40° C./75% RH-cooling) it was 100.00%; in data set [1] (Test 1, week 1, 30° C./65% RH) it was 102.02%; in data set [1] (Test 1, week 1, 40° C./75% RH), 98.34%; in data set [1] (Test 1, week 1, Cycled 40° C./75% RH-cooling), 98.69%. Moreover, the “Vitamin D3 rating (stability)” value in data set [1] (Test 1, week 2, 30° C./65% RH) turned out to be 99.20%; in data set [1] (Test 1, week 2, 40° C./75% RH), 98.12%; in data set [1] (Test 1, week 2, Cycled 40° C./75% RH-cooling) it was 97.90%; in data set [1] (Test 1, week 4, 30° C./65% RH) it was 96.39%; in data set [1] (Test 1, week 4, 40° C./75% RH) it was 96.03%; in data set [1] (Test 1, week 4, Cycled 40° C./75% RH-cooling), 96.09%. Also, the “Vitamin D3 rating (stability)” value in data set [1] (Test 2, week 0, 30° C./65% RH) was 100.00%; in data set [1] (Test 2, week 0, 40° C./75% RH) it was 100.00%; in data set [1] (Test 2, week 0, Cycled 40° C./75% RH-cooling), 100.00%; in data set [1] (Test 2, week 1, 30° C./65% RH), 97.34%; in data set [1] (Test 2, week 1, 40° C./75% RH), 99.62%; in data set [1] (Test 2, week 1, Cycled 40° C./75% RH-cooling), 95.55%. Moreover, the “Vitamin D3 rating (stability)” value in data set [1] (Test 2, week 2, 30° C./65% RH) turned out to be 96.93%; in data set [1] (Test 2, week 2, 40° C./75% RH) it was 97.80%; in data set [1] (Test 2, week 2, Cycled 40° C./75% RH-cooling), 96.31%; in data set [1] (Test 2, week 4, 30° C./65% RH) it was 94.79%; in data set [1] (Test 2, week 4, 40° C./75% RH) it was 96.32%; in data set [1] (Test 2, week 4, Cycled 40° C./75% RH-cooling) it was 94.79%. In data set [1] (over the four weeks under the different conditions), the “decrease in the vitamin D3 rating” value stood at 5.96%.

`O=P(O)(O)C(O)(Cc1cccnc1)P(=O)(O)O` [Risedronate sodium, risedronate sodium]: the “injected dose recovered in the urine” value in data set [2] (after 28 days) is 85%. The Tmax in data set [2] (after an oral dose) was approximately 1 h. Besides, the “part of the absorbed dose excreted in the urine” value in data set [2] (first 24 hours) was “One half”. Moreover, in data set [2] (humans), the “mean volume of distribution at steady state equilibrium” value was 6.3 L/kg. For the same molecule, the “Dissolution buffer stage, dissolved” value in data set [3] (pH 6.8, 5 min) is recorded as 94.08%; in data set [3] (pH 6.8, 10 min), “more than 100%”; in data set [3] (pH 6.8, 10 min, listed as Risedronate Sodium 35 mg), 100.93%; in data set [3] (pH 6.8, 15 min), 100.84%; in data set [3] (pH 6.8, 20 min), 100.94%; in data set [3] (pH 6.8, 30 min), 100.12%. In data set [3] (pH 6.8, 45 min), the “Dissolution buffer stage, dissolved” value is on record as 100.48%. In addition, the “Risedronate sodium stability, Final” value in data set [4] (Test 1, final (4 weeks)) was found to be 100.66%; in data set [4] (Test 2, final (4 weeks)) it was 96.75%. Also, the “Risedronate sodium stability, Initial” value in data set [4] (Test 1, initial) stood at 102.55%; in data set [4] (Test 2, initial), 100.99%. The “Risedronate sodium Acid Stage % Dissolved” value in data set [5] (individual samples S1-S6, specification no more than 10.0%) is 0.97% and 0.56% and 0.80% and 0.95% and 1.19% and 0.71%. For the same molecule, the “Risedronate sodium Acid Stage % Dissolved, Maximum” value in data set [5] (maximum of S1-S6) is recorded as 1.19%. In addition, the “Risedronate sodium Acid Stage % Dissolved, Mean” value in data set [5] (mean of S1-S6) was found to be 0.86%. Also, in data set [5] (minimum of S1-S6), the “Risedronate sodium Acid Stage % Dissolved, Minimum” value is 0.56%. The plasmatic protein binding in data set [6] is 24%.
